System: HEK293 wild type and TDP1-/- and PARP1-/- cell lines
Test: Joint action of 10a and Tpc on HEK293 wild type, TDP1-/- and PARP1-/- cells
Format: cell-based, human
Settings: data not shown
Source text: In our previous works, we checked the cytotoxic effect of Tpc and the TDP1 inhibitors—monoterpene 3-carene-derived compounds [48, 49] and UA combined with monoterpenoids, measured separately and jointly with Tpc—using a panel of HEK293FT and HEK293A Tdp1 knockout isogenic clones. […] The data on the HEK293FT mutants were of low reproducibility, which is why we decided to change the basic cell line to HEK293A [49]. In this work, we created new PARP1-/- HEK293A cells using the CRISPR–Cas9 approach (Figure S27). […] We checked the intrinsic cytotoxicity of the leader compound (10a) on the HEK293 wild type and TDP1-/- and PARP1-/- cell lines using a colorimetric test (Figure 6). […] There was no difference between the WT and mutant cells.
Cytotoxicity of the compounds was examined against human cell lines HEK293A (human embryonic kidney)—WT, TDP1 deficient (Tdp1-/-), PARP1 deficient (PARP1-/-), and HeLa (cervical cancer) using an EZ4U colorimetric test (Biomedica, Vienna, Austria). […] After the formation of a 30–50% monolayer, the tested compounds were added to the medium, and the cell culture was monitored for 3 days. […] The compound concentration that caused 50% cell growth inhibition was determined using OriginPro 8.6.0 software (OriginLab, Northampton, MA, USA). […]

With `CC(=O)C1=C(O)C=C2Oc3c(C(=O)C[S+]([O-])c4nc5ccccc5s4)c(O)c(C)c(O)c3[C@@]2(C)C1=O` (stereo partly drawn) [10a, (2R)-4-acetyl-10-[2-(1,3-benzothiazole-2-sulfinyl)acetyl]-5,11,13-trihydroxy-2,12-dimethyl-8-oxatricyclo[7.4.0.0^2,7]trideca-1(13),4,6,9,11-pentaen-3-one] the “Effect of the joint presence of 10a and Tpc (in words)” value was “did not observe any effect”.
